Experimental data as given in patent publication US10517889B2, “Modulators of SMAD7 expression” (Ionis Pharmaceuticals, Inc., priority 2017, dated 2019).
Strand notation (5' to 3'): a small letter for the sugar, then the base; units joined by * are phosphorothioate-linked, units joined directly phosphodiester-linked; [ ] holds rarer units or linkages, { } end groups; capitals alone tell only the bases. k = constrained ethyl (cEt); [5mC] = 5-methylcytosine; d = 2'-deoxy (DNA)

Each substance was assayed on human SMAD7 mRNA (assay: Antisense inhibition of human SMAD7 mRNA expression in Hep3B cells by 3-10-3 cEt gapmers, 10,000 nM, electroporation (Example 2)). Conditions: Hep3B cells, electroporation with 10,000 nM antisense oligonucleotide, approximately 24 hours, primer probe set RTS5062, relative to untreated control cells.
Type: cell-based
Outline: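 Hep3B, 20,000 cells/well; electroporation, 10,000 nM ASO; ~24 h. Readout: SMAD7 mRNA by qRT-PCR (RTS5062), RIBOGREEN-normalised; % inhibition vs untreated.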

First: 798957 (antisense kA*kT*kT*d[5mC]*dT*dT*dT*dT*d[5mC]*dA*dT*dA*dA*kG*k[5mC]*kT) [compound 798957]
Second: 798958 (antisense kA*kA*k[5mC]*dA*dA*dT*dT*d[5mC]*dT*dT*dT*dT*d[5mC]*kA*kT*kA) [compound 798958]
The “% Inhibition” value of the first is higher: 28% for the first, 0% for the second.

Going from “798959 (antisense k[5mC]*k[5mC]*k[5mC]*dA*dA*d[5mC]*dA*dA*dT*dT*d[5mC]*dT*dT*kT*kT*k[5mC]) [compound 798959]” to “798960 (antisense kA*k[5mC]*k[5mC]*d[5mC]*d[5mC]*d[5mC]*dA*dA*d[5mC]*dA*dA*dT*dT*k[5mC]*kT*kT) [compound 798960]”, the “% Inhibition” value rises from 36% to 39%.

First: 798961 (antisense kA*kA*kA*dA*d[5mC]*d[5mC]*d[5mC]*d[5mC]*d[5mC]*dA*dA*d[5mC]*dA*kA*kT*kT) [compound 798961]
Second: 798962 (antisense kT*kT*k[5mC]*d[5mC]*dA*dA*dA*dA*dA*dA*dA*d[5mC]*d[5mC]*k[5mC]*k[5mC]*k[5mC]) [compound 798962]
The “% Inhibition” value of the first is lower: 0% for the first, 2% for the second.

Going from “798973 (antisense kT*k[5mC]*k[5mC]*dT*dA*dT*d[5mC]*dA*dG*dG*dG*dT*dG*kT*k[5mC]*k[5mC]) [compound 798973]” to “798974 (antisense k[5mC]*kT*k[5mC]*dT*dT*d[5mC]*d[5mC]*dT*dA*dT*d[5mC]*dA*dG*kG*kG*kT) [compound 798974]”, the “% Inhibition” value falls from 30% to 12%.

First: 798975 (antisense kT*k[5mC]*k[5mC]*d[5mC]*d[5mC]*dT*d[5mC]*dT*dT*d[5mC]*d[5mC]*dT*dA*kT*k[5mC]*kA) [compound 798975]
Second: 798976 (antisense kT*kG*kG*dA*dT*dT*dT*d[5mC]*dT*dG*d[5mC]*dT*dT*k[5mC]*k[5mC]*k[5mC]) [compound 798976]
The “% Inhibition” value of the first is higher: 47% for the first, 19% for the second.

Compared with “798977 (antisense kT*kG*k[5mC]*dT*dT*dG*dG*dA*dT*dT*dT*d[5mC]*dT*kG*k[5mC]*kT) [compound 798977]”, “798978 (antisense kT*kT*kT*dG*dG*dT*dG*dG*dT*dG*d[5mC]*dT*dT*kG*kG*kA) [compound 798978]” is lower in “% Inhibition” value: 43% for the first, 25% for the second.

Compared with “798979 (antisense kG*kT*kG*dT*dT*dT*dG*dG*dT*dG*dG*dT*dG*k[5mC]*kT*kT) [compound 798979]”, “798980 (antisense kA*k[5mC]*kA*d[5mC]*dT*dG*dT*dG*dT*dT*dT*dG*dG*kT*kG*kG) [compound 798980]” is higher in “% Inhibition” value: 19% for the first, 50% for the second.

Going from “798981 (antisense k[5mC]*kA*kT*dA*d[5mC]*dA*d[5mC]*dT*dG*dT*dG*dT*dT*kT*kG*kG) [compound 798981]” to “798982 (antisense k[5mC]*kT*kT*d[5mC]*dA*dT*dA*d[5mC]*dA*d[5mC]*dT*dG*dT*kG*kT*kT) [compound 798982]”, the “% Inhibition” value falls from 58% to 45%.

Compared with “798993 (antisense k[5mC]*kA*k[5mC]*dA*d[5mC]*dT*d[5mC]*d[5mC]*dT*dG*dA*d[5mC]*dA*kA*kG*kT) [compound 798993]”, “798994 (antisense kA*k[5mC]*kA*d[5mC]*dA*d[5mC]*dA*d[5mC]*dT*d[5mC]*d[5mC]*dT*dG*kA*k[5mC]*kA) [compound 798994]” is lower in “% Inhibition” value: 37% for the first, 0% for the second.

First: 798995 (antisense kA*k[5mC]*kT*d[5mC]*dA*d[5mC]*dA*d[5mC]*dT*d[5mC]*dA*d[5mC]*dA*k[5mC]*kA*k[5mC]) [compound 798995]
Second: 798996 (antisense k[5mC]*kA*k[5mC]*dA*d[5mC]*dT*d[5mC]*dA*d[5mC]*dA*d[5mC]*dT*d[5mC]*kA*k[5mC]*kA) [compound 798996]
The “% Inhibition” value of the first is lower: 0% for the first, 49% for the second.

Compared with “798997 (antisense kG*k[5mC]*kA*d[5mC]*dA*d[5mC]*dT*d[5mC]*dA*d[5mC]*dA*d[5mC]*dT*k[5mC]*kA*k[5mC]) [compound 798997]”, “798998 (antisense k[5mC]*kG*k[5mC]*dA*d[5mC]*dA*d[5mC]*dT*d[5mC]*dA*d[5mC]*dA*d[5mC]*kT*k[5mC]*kA) [compound 798998]” is higher in “% Inhibition” value: 12% for the first, 13% for the second.

Going from “798999 (antisense k[5mC]*k[5mC]*kG*d[5mC]*dA*d[5mC]*dA*d[5mC]*dT*d[5mC]*dA*d[5mC]*dA*k[5mC]*kT*k[5mC]) [compound 798999]” to “799000 (antisense kG*k[5mC]*k[5mC]*dG*d[5mC]*dA*d[5mC]*dA*d[5mC]*dT*d[5mC]*dA*d[5mC]*kA*k[5mC]*kT) [compound 799000]”, the “% Inhibition” value rises from 17% to 42%.

Compared with “799001 (antisense k[5mC]*kA*kG*d[5mC]*d[5mC]*dG*d[5mC]*dA*d[5mC]*dA*d[5mC]*dT*d[5mC]*kA*k[5mC]*kA) [compound 799001]”, “799002 (antisense kA*k[5mC]*kA*dG*d[5mC]*d[5mC]*dG*d[5mC]*dA*d[5mC]*dA*d[5mC]*dT*k[5mC]*kA*k[5mC]) [compound 799002]” is lower in “% Inhibition” value: 37% for the first, 15% for the second.

First: 798963 (antisense kT*kT*k[5mC]*dT*dT*d[5mC]*d[5mC]*dA*dA*dA*dA*dA*dA*kA*k[5mC]*k[5mC]) [compound 798963]
Second: 798964 (antisense k[5mC]*k[5mC]*k[5mC]*dT*dT*d[5mC]*dT*dT*d[5mC]*d[5mC]*dA*dA*dA*kA*kA*kA) [compound 798964]
The “% inhibition of SMAD7 mRNA expression” value of the first is lower: 13% for the first, 32% for the second.

First: 798965 (antisense kT*kG*k[5mC]*d[5mC]*d[5mC]*d[5mC]*dT*dT*d[5mC]*dT*dT*d[5mC]*d[5mC]*kA*kA*kA) [compound 798965]
Second: 798966 (antisense kT*kA*k[5mC]*d[5mC]*dT*dG*d[5mC]*d[5mC]*d[5mC]*d[5mC]*dT*dT*d[5mC]*kT*kT*k[5mC]) [compound 798966]
The “% inhibition of SMAD7 mRNA expression” value of the first is higher: 43% for the first, 35% for the second.

Compared with “798967 (antisense kT*k[5mC]*kA*dT*dA*d[5mC]*d[5mC]*dT*dG*d[5mC]*d[5mC]*d[5mC]*d[5mC]*kT*kT*k[5mC]) [compound 798967]”, “798968 (antisense k[5mC]*kG*kA*dT*d[5mC]*dA*dT*dA*d[5mC]*d[5mC]*dT*dG*d[5mC]*k[5mC]*k[5mC]*k[5mC]) [compound 798968]” is higher in “% inhibition of SMAD7 mRNA expression” value: 40% for the first, 62% for the second.

Going from “798969 (antisense kT*kG*k[5mC]*d[5mC]*dG*dA*dT*d[5mC]*dA*dT*dA*d[5mC]*d[5mC]*kT*kG*k[5mC]) [compound 798969]” to “798970 (antisense kT*k[5mC]*k[5mC]*dT*dG*d[5mC]*d[5mC]*dG*dA*dT*d[5mC]*dA*dT*kA*k[5mC]*k[5mC]) [compound 798970]”, the “% inhibition of SMAD7 mRNA expression” value falls from 48% to 41%.

Going from “798971 (antisense kG*kG*kT*dG*dT*d[5mC]*d[5mC]*dT*dG*d[5mC]*d[5mC]*dG*dA*kT*k[5mC]*kA) [compound 798971]” to “798972 (antisense kT*kA*kT*d[5mC]*dA*dG*dG*dG*dT*dG*dT*d[5mC]*d[5mC]*kT*kG*k[5mC]) [compound 798972]”, the “% inhibition of SMAD7 mRNA expression” value falls from 53% to 18%.

Compared with “798983 (antisense k[5mC]*k[5mC]*k[5mC]*d[5mC]*dT*dT*d[5mC]*dA*dT*dA*d[5mC]*dA*d[5mC]*kT*kG*kT) [compound 798983]”, “798984 (antisense kG*k[5mC]*k[5mC]*d[5mC]*d[5mC]*d[5mC]*d[5mC]*dT*dT*d[5mC]*dA*dT*dA*k[5mC]*kA*k[5mC]) [compound 798984]” is higher in “% inhibition of SMAD7 mRNA expression” value: 0% for the first, 64% for the second.

Compared with “798985 (antisense kG*kA*k[5mC]*d[5mC]*dG*d[5mC]*d[5mC]*d[5mC]*d[5mC]*d[5mC]*d[5mC]*dT*dT*k[5mC]*kA*kT) [compound 798985]”, “798986 (antisense kG*kA*kT*dG*dA*d[5mC]*d[5mC]*dG*d[5mC]*d[5mC]*d[5mC]*d[5mC]*d[5mC]*k[5mC]*kT*kT) [compound 798986]” is lower in “% inhibition of SMAD7 mRNA expression” value: 41% for the first, 34% for the second.

Going from “798988 (antisense kT*kG*kA*dA*dA*dT*dG*dA*dT*dG*dA*d[5mC]*d[5mC]*kG*k[5mC]*k[5mC]) [compound 798988]” to “798989 (antisense kA*kA*kG*dT*dG*dA*dA*dA*dT*dG*dA*dT*dG*kA*k[5mC]*k[5mC]) [compound 798989]”, the “% inhibition of SMAD7 mRNA expression” value falls from 69% to 8%.

Going from “798990 (antisense kG*kA*k[5mC]*dA*dA*dG*dT*dG*dA*dA*dA*dT*dG*kA*kT*kG) [compound 798990]” to “798991 (antisense k[5mC]*k[5mC]*kT*dG*dA*d[5mC]*dA*dA*dG*dT*dG*dA*dA*kA*kT*kG) [compound 798991]”, the “% inhibition of SMAD7 mRNA expression” value falls from 39% to 23%.

First: 798992 (antisense kA*k[5mC]*kT*d[5mC]*d[5mC]*dT*dG*dA*d[5mC]*dA*dA*dG*dT*kG*kA*kA) [compound 798992]
Second: 799003 (antisense kA*k[5mC]*kA*d[5mC]*dA*dG*d[5mC]*d[5mC]*dG*d[5mC]*dA*d[5mC]*dA*k[5mC]*kT*k[5mC]) [compound 799003]
The “% inhibition of SMAD7 mRNA expression” value of the first is higher: 29% for the first, 0% for the second.

“799004 (antisense kG*k[5mC]*kA*d[5mC]*dA*d[5mC]*dA*d[5mC]*dA*dG*d[5mC]*d[5mC]*dG*k[5mC]*kA*k[5mC]) [compound 799004]” was tested, and the “% inhibition of SMAD7 mRNA expression” value was 0%.
